± gives the expanded uncertainty stated by the source.
Details: 298 K; 101.33 kPa; Crystal; Buoyancy - hydrostatic balance

| mass density | Compound |
| --- | --- |
| 9999 ± 600 kg/m3 | [Mo] [molybdenum] |
| 2656 ± 310 kg/m3 | [Al] [aluminum] |

— the NIST ThermoML archive (doi:10.1016/j.tca.2018.01.022)
